Test results reported in ChEMBL document CHEMBL1201862, “PubChem BioAssay data set” (2004).
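Dose response: 5 concentrations. Exposure: 48 h. Format: 96-well plates. Endpoint: linear interpolation; highest concentration if not reached. Abbreviation: GI50, concentration required for 50% inhibition of growth.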 Activity calls are given as the source filed them. No stated cut-off is given here; in the data, active = GI50 up to about 1.1 µM and inactive = higher.

What was measured:
Experiment in all cases: DTP human tumour cell line panel, 48 h
DMS-273 = test system: DMS-273
M19-MEL = test system: M19-MEL
Hs-578T = test system: Hs-578T
EKVX = test system: EKVX
A498 = test system: A498
HCT-116 = test system: HCT-116
NCI-H226 = test system: NCI-H226
BT-549 = test system: BT-549
OVCAR-3 = test system: OVCAR-3
RXF 393 = test system: RXF 393
786-0 = test system: 786-0
MDA-MB-231 = test system: MDA-MB-231
OVCAR-4 = test system: OVCAR-4
SK-MEL-5 = test system: SK-MEL-5
KM12 = test system: KM12
NCI-H522 = test system: NCI-H522
T47D = test system: T47D
OVCAR-5 = test system: OVCAR-5
NCI-H460 = test system: NCI-H460
CCRF-CEM = test system: CCRF-CEM
NCI/ADR-RES = test system: NCI/ADR-RES
A549 = test system: A549
NCI-H23 = test system: NCI-H23
SK-MEL-28 = test system: SK-MEL-28
SR = test system: SR
KM-20L2 = test system: KM-20L2
PC-3 = test system: PC-3
LXFL 529 = test system: LXFL 529
RXF 631 = test system: RXF 631
MDA-N = test system: MDA-N
HOP-62 = test system: HOP-62
SW-620 = test system: SW-620
TK-10 = test system: TK-10
HCT-15 = test system: HCT-15
RPMI-8226 = test system: RPMI-8226
DLD-1 = test system: DLD-1
ACHN = test system: ACHN
SNB-78 = test system: SNB-78
OVCAR-8 = test system: OVCAR-8
M14 = test system: M14
HOP-92 = test system: HOP-92
CAKI-1 = test system: CAKI-1
HOP-18 = test system: HOP-18
SN12C = test system: SN12C
UACC-257 = test system: UACC-257
SK-MEL-2 = test system: SK-MEL-2
HCC 2998 = test system: HCC 2998
K562 = test system: K562
UO-31 = test system: UO-31
MCF7 = test system: MCF7
SF-295 = test system: SF-295
MOLT-4 = test system: MOLT-4
SNB-19 = test system: SNB-19
HL-60 = test system: HL-60
IGROV-1 = test system: IGROV-1
Malme-3M = test system: Malme-3M
DU-145 = test system: DU-145
MDA-MB-435 = test system: MDA-MB-435
SK-OV-3 = test system: SK-OV-3
UACC-62 = test system: UACC-62
LOX IMVI = test system: LOX IMVI
U-251 = test system: U-251
HT-29 = test system: HT-29
SF-268 = test system: SF-268
SF-539 = test system: SF-539
COLO 205 = test system: COLO 205
SNB-75 = test system: SNB-75
DMS-114 = test system: DMS-114
XF498 = test system: XF498

With CC(=O)CC[N+](C)(C)C the GI50 (DMS-273) was 21 µM (inactive), the GI50 (M19-MEL) was 23.3 µM (inactive) and the GI50 (Hs-578T) was 12.6 µM (inactive). The GI50 (EKVX) was 17.7 µM (inactive), the GI50 (A498) was 69.2 µM (inactive) and the GI50 (HCT-116) was 25.2 µM (inactive). For the same compound, the GI50 (NCI-H226) was 53 µM (inactive), the GI50 (BT-549) was 35 µM (inactive) and the GI50 (OVCAR-3) was 37.3 µM (inactive). For the same compound, the GI50 (RXF 393) was 12.9 µM (inactive), the GI50 (786-0) was 23.6 µM (inactive) and the GI50 (MDA-MB-231) was 21.3 µM (inactive). The GI50 (OVCAR-4) was 14.8 µM (inactive), the GI50 (SK-MEL-5) was 30.3 µM (inactive) and the GI50 (KM12) was 77.3 µM (inactive). For the same compound, the GI50 (NCI-H522) was 0.929 µM (active), the GI50 (T47D) was 29.2 µM (inactive) and the GI50 (OVCAR-5) was 44.6 µM (inactive). The GI50 (NCI-H460) was 65.8 µM (inactive), the GI50 (CCRF-CEM) was 5.24 µM (inactive) and the GI50 (NCI/ADR-RES) was 38.9 µM (inactive). For the same compound, the GI50 (A549) was 83.4 µM (inactive), the GI50 (NCI-H23) was 29.2 µM (inactive) and the GI50 (SK-MEL-28) was 28.5 µM (inactive). The GI50 (SR) was 7.85 µM (inactive), the GI50 (KM-20L2) was 25.7 µM (inactive) and the GI50 (PC-3) was 76.9 µM (inactive). For the same compound, the GI50 (LXFL 529) was 12.9 µM (inactive), the GI50 (RXF 631) was 28.8 µM (inactive) and the GI50 (MDA-N) was 40.7 µM (inactive). The GI50 (HOP-62) was > 100 µM (inactive), the GI50 (SW-620) was 4.06 µM (inactive) and the GI50 (TK-10) was 27.6 µM (inactive). For the same compound, the GI50 (HCT-15) was 22.7 µM, the GI50 (RPMI-8226) was 5.94 µM (inactive) and the GI50 (DLD-1) was 10.1 µM (inactive). The GI50 (ACHN) was 17 µM (inactive), the GI50 (SNB-78) was 12.5 µM (inactive) and the GI50 (OVCAR-8) was 33.5 µM (inactive). For the same compound, the GI50 (M14) was 23 µM (inactive), the GI50 (HOP-92) was 10.7 µM (inactive) and the GI50 (CAKI-1) was 1.9 µM (inactive). The GI50 (HOP-18) was 13.9 µM (inactive), the GI50 (SN12C) was 27.7 µM (inactive) and the GI50 (UACC-257) was 25.8 µM (inactive). For the same compound, the GI50 (SK-MEL-2) was 36.4 µM (inactive), the GI50 (HCC 2998) was 52.5 µM (inactive) and the GI50 (K562) was 3.21 µM (inactive). For the same compound, the GI50 (UO-31) was 42 µM (inactive), the GI50 (MCF7) was 30.3 µM (inactive) and the GI50 (SF-295) was 83.6 µM (inactive). For the same compound, the GI50 (MOLT-4) was 6.15 µM (inactive), the GI50 (SNB-19) was 22.7 µM (inactive) and the GI50 (HL-60) was 4.42 µM (inactive). For the same compound, the GI50 (IGROV-1) was 37.3 µM (inactive), the GI50 (Malme-3M) was 16.1 µM (inactive) and the GI50 (DU-145) was 88.5 µM (inactive). The GI50 (MDA-MB-435) was 37.8 µM (inactive), the GI50 (SK-OV-3) was 26.7 µM (inactive) and the GI50 (UACC-62) was 26.8 µM (inactive). For the same compound, the GI50 (LOX IMVI) was 14.1 µM (inactive), the GI50 (U-251) was 34.6 µM (inactive) and the GI50 (HT-29) was 32.7 µM (inactive). For the same compound, the GI50 (SF-268) was 44.3 µM (inactive), the GI50 (SF-539) was 62.8 µM (inactive) and the GI50 (COLO 205) was 9.04 µM (inactive). For the same compound, the GI50 (SNB-75) was 29 µM (inactive).
For O=C(Nc1nc2ncn(CC(COc3ccccc3)OC(=O)c3ccccc3)c2c(=O)[nH]1)c1ccccc1 (stereo not drawn), the GI50 (DMS-273) was > 100 µM (inactive), the GI50 (M19-MEL) was > 100 µM (inactive) and the GI50 (EKVX) was > 100 µM (inactive). The GI50 (A498) was > 100 µM (inactive), the GI50 (HCT-116) was > 100 µM (inactive) and the GI50 (NCI-H226) was > 100 µM (inactive). For the same compound, the GI50 (OVCAR-3) was > 100 µM (inactive), the GI50 (RXF 393) was > 100 µM (inactive) and the GI50 (786-0) was > 100 µM (inactive). For the same compound, the GI50 (OVCAR-4) was > 100 µM (inactive), the GI50 (SK-MEL-5) was > 100 µM (inactive) and the GI50 (KM12) was > 100 µM (inactive). For the same compound, the GI50 (NCI-H522) was > 100 µM (inactive), the GI50 (OVCAR-5) was > 100 µM (inactive) and the GI50 (A549) was > 100 µM (inactive). For the same compound, the GI50 (SK-MEL-28) was > 100 µM (inactive), the GI50 (SR) was 58.5 µM (inactive) and the GI50 (KM-20L2) was > 100 µM (inactive). The GI50 (RXF 631) was > 100 µM (inactive), the GI50 (HOP-62) was > 100 µM (inactive) and the GI50 (SW-620) was > 100 µM (inactive). For the same compound, the GI50 (HCT-15) was over 100 µM, the GI50 (RPMI-8226) was > 100 µM (inactive) and the GI50 (DMS-114) was > 100 µM (inactive). For the same compound, the GI50 (ACHN) was > 100 µM (inactive), the GI50 (OVCAR-8) was > 100 µM (inactive) and the GI50 (M14) was > 100 µM (inactive). For the same compound, the GI50 (CAKI-1) was > 100 µM (inactive), the GI50 (XF498) was > 100 µM (inactive) and the GI50 (SN12C) was > 100 µM (inactive). The GI50 (UACC-257) was > 100 µM (inactive), the GI50 (SK-MEL-2) was > 100 µM (inactive) and the GI50 (K562) was > 100 µM (inactive). The GI50 (UO-31) was > 100 µM (inactive), the GI50 (SF-295) was 48 µM (inactive) and the GI50 (MOLT-4) was > 100 µM (inactive). The GI50 (SNB-19) was > 100 µM (inactive), the GI50 (HL-60) was < 0.01 µM (active) and the GI50 (IGROV-1) was > 100 µM (inactive). The GI50 (Malme-3M) was > 100 µM (inactive), the GI50 (SK-OV-3) was > 100 µM (inactive) and the GI50 (UACC-62) was > 100 µM (inactive). For the same compound, the GI50 (LOX IMVI) was > 100 µM (inactive), the GI50 (U-251) was > 100 µM (inactive) and the GI50 (HT-29) was > 100 µM (inactive). The GI50 (SF-539) was > 100 µM (inactive) and the GI50 (SNB-75) was > 100 µM (inactive).
With O=C(N/C(=C\c1ccc([N+](=O)[O-])cc1)c1nc2ccccc2[nH]1)c1ccccc1 the GI50 (M19-MEL) was > 100 µM (inactive), the GI50 (EKVX) was > 100 µM (inactive) and the GI50 (A498) was > 100 µM (inactive). For the same compound, the GI50 (HCT-116) was 72.4 µM (inactive), the GI50 (RXF 393) was > 100 µM (inactive) and the GI50 (786-0) was > 100 µM (inactive). The GI50 (OVCAR-4) was > 100 µM (inactive), the GI50 (SK-MEL-5) was 86.9 µM (inactive) and the GI50 (KM12) was > 100 µM (inactive). The GI50 (NCI-H522) was 64.7 µM (inactive), the GI50 (OVCAR-5) was > 100 µM (inactive) and the GI50 (NCI-H460) was > 100 µM (inactive). For the same compound, the GI50 (A549) was 93.5 µM (inactive), the GI50 (NCI-H23) was > 100 µM (inactive) and the GI50 (SK-MEL-28) was > 100 µM (inactive). The GI50 (KM-20L2) was > 100 µM (inactive), the GI50 (LXFL 529) was 39.4 µM (inactive) and the GI50 (RXF 631) was 43.7 µM (inactive). For the same compound, the GI50 (HOP-62) was > 100 µM (inactive), the GI50 (SW-620) was > 100 µM (inactive) and the GI50 (TK-10) was > 100 µM (inactive). For the same compound, the GI50 (HCT-15) was 45.5 µM, the GI50 (RPMI-8226) was > 100 µM (inactive) and the GI50 (DLD-1) was > 100 µM (inactive). For the same compound, the GI50 (DMS-114) was > 100 µM (inactive), the GI50 (ACHN) was > 100 µM (inactive) and the GI50 (SNB-78) was > 100 µM (inactive). The GI50 (OVCAR-8) was > 100 µM (inactive), the GI50 (M14) was > 100 µM (inactive) and the GI50 (HOP-92) was 45.6 µM (inactive). The GI50 (HOP-18) was > 100 µM (inactive), the GI50 (SN12C) was > 100 µM (inactive) and the GI50 (UACC-257) was > 100 µM (inactive). The GI50 (SK-MEL-2) was > 100 µM (inactive), the GI50 (HCC 2998) was > 100 µM (inactive) and the GI50 (K562) was > 100 µM (inactive). The GI50 (UO-31) was 21.9 µM (inactive), the GI50 (SF-295) was > 100 µM (inactive) and the GI50 (MOLT-4) was > 100 µM (inactive). For the same compound, the GI50 (SNB-19) was > 100 µM (inactive), the GI50 (HL-60) was 70.6 µM (inactive) and the GI50 (IGROV-1) was > 100 µM (inactive). For the same compound, the GI50 (Malme-3M) was > 100 µM (inactive), the GI50 (UACC-62) was > 100 µM (inactive) and the GI50 (U-251) was 63.7 µM (inactive). For the same compound, the GI50 (HT-29) was 95.7 µM (inactive), the GI50 (SF-268) was > 100 µM (inactive) and the GI50 (SF-539) was > 100 µM (inactive). The GI50 (COLO 205) was > 100 µM (inactive).
